{"source": "patent US9018188B2", "about": "“MicroRNA inhibitors” (Ottawa Hospital Research Institute, priority 2011, dated 2015)", "type_in_all_cases": "in vivo, mouse", "key": {"miR-133a and miR-133b": {"test_system": "miR-133a and miR-133b", "experiment": "RT-qPCR of miR-133 expression after intramuscular ASO injection", "excerpt": "(§1) To investigate miR-133 function in brown adipose determination of satellite cells in vivo, Applicant synthesized miR-133 antagomiR (miR-133 antisense oligonucleotide (ASO)) with an antisense sequence to both miR-133a and miR-133b, as well as a control “antagomiR” (control ASO) with the same chemical modifications and not antisense to any mouse gene or EST sequence (see Experimental Procedures). Applicant performed lineage tracing to distinguish effects of miR-133 ASO on satellite cells versus other cell types. Six week old Pax7-CreER; R26R-tdTomato mice were treated with tamoxifin as before (5 consecutive daily injections), then aged to 10 weeks of age prior to initiating the experiment. Control ASO versus miR-133 ASO were injected into tibialis anterior (TA) muscles 3 days following saline injection (quiescent state) or cardiotoxin injection (to induce activation). After one month, RT-qPCR was performed using RNA isolated from several tissues to evaluate the efficacy and scope of miR-133 ASO administration.\nTo induce brown adipocytes in vivo, 10 mg/mL Cardiotoxin solution (50 μl) was intramuscularly injected into TA muscles of 10-week old Pax7-CreER/R26R-tdTomato mice (FIG. 4) or C57BL/6 mice (FIG. 5 and FIG. 6). Alternatively, frozen injury was performed by applying liquid nitrogen cooled tweezers tips directly onto the anterior sides of TA muscles. After 3 days, 20 μg of miR-133 antagomiR or control antagomiR in saline (50 μl) was intramuscularly injected into the same injured TA muscles (on right hindlimbs). To test efficacy of miR-133 ASO in intact muscles, saline, instead of Cardiotoxin, was injected to TA muscles before miR-133 ASO administration (FIGS. 4A, 4B). miR-133 antagomiR and scramble antagomiR were designed as previously described (Krutzfeldt et al., 2005).\nTotal RNA was extracted from cells by TRIzol or Arcturus® PicoPure® RNA Isolation Kit (Applied Biosystems) following manufactures' recommendations. […]"}, "Ucp1": {"test_system": "Ucp1", "experiment": "UCP1 immunoblot in inguinal and epididymal white adipose tissues", "description": "Normalized UCP1 levels were calculated based on the densitometry analysis of the UCP1 immunoblot and the α-Tubulin immunoblot. The interscapular brown adipose tissue (iBAT) were included as a control. Asterisk denotes the loading of the iBAT lanes on the UCP1 immunoblot was 1/100 of other lanes to avoid overloading. (B) Immunohistochemistry (IHC) of UCP1 protein reveal miR-133 antagonism induced beige adipocytes within inguinal and epididymal white adipose tissues. […] Error bars: S.E.M., asterisk: significant pair-wise comparison by t-test, *: p≦0.05, **: p≦0.01, ***: p≦0.001.\nThe following antibodies and dilutions were used: anti-Prdm16 antibody (generated in Dr. Patrick Seale's laboratory), 1:5,000 dilution; anti-Perilipin A antibody (Vala Sciences), 1:5,000 dilution; anti-Ucp1 antibody (Ab10983, Abeam), 1:1,000 dilution (FIGS. 4B, 5A, 7A); anti-Ucp1 antibody (Calbiochem), 1:1,000 dilution (FIG. 8C); anti-Ucp3 antibody (Ab3477, Abeam), 1:1,000 dilution; anti-Pgc1α antibody (Abeam), 1:1,000 dilution; anti-pan myosin heavy chain (MyHC) antibody (Developmental Studies Hybridoma Bank), 1:500; anti-DsRed (tdTomato) antibody (Ablab), 1:500; anti-α-Tubulin antibody (Sigma-Aldrich), 1:10,000 dilution."}, "Ucp3": {"test_system": "Ucp3", "experiment": "Immunoblot of Ucp3 in TA muscle after ASO injection", "conditions": "TA muscles", "excerpt": "as §1\n(§2) To induce brown adipocytes in vivo, 10 mg/mL Cardiotoxin solution (50 μl) was intramuscularly injected into TA muscles of 10-week old Pax7-CreER/R26R-tdTomato mice (FIG. 4) or C57BL/6 mice (FIG. 5 and FIG. 6). Alternatively, frozen injury was performed by applying liquid nitrogen cooled tweezers tips directly onto the anterior sides of TA muscles. […]"}, "let-7a microRNA": {"test_system": "let-7a microRNA", "experiment": "RT-qPCR of let-7a expression after intramuscular ASO injection (specificity)", "conditions": "intramuscular administration", "excerpt": "as §1, §2"}}, "data": [{"substance": "*mA*mUmAmGmCmUmGmGmUmUmGmAmAmGmGmGmGmAmC*mC*mA*mA*mAChl [miR-133 ASO]", "values": [{"measurement": "miR-133a/b expression in the contralateral TA muscles", "setting": "miR-133a and miR-133b; ASO injected into resting muscles", "value": "repressed"}, {"measurement": "miR-133 expression in the myocardium", "setting": "miR-133a and miR-133b; intramuscular administration", "value": "unaffected"}, {"measurement": "miR-133a and miR-133b expression within the injected TA muscles", "setting": "miR-133a and miR-133b; intramuscular, one month after injection, resting or regenerating muscle", "value": "striking reduction"}, {"measurement": "effect on UCP1 in white adipose tissues", "setting": "Ucp1; C57BL/6 mice fed with a high fat diet (HFD)", "value": "not present"}, {"measurement": "UCP1 in inguinal and epididymal white adipose tissues", "setting": "Ucp1; C57BL/6 mice fed with a regular diet (RD), CTX", "value": "increase"}, {"measurement": "Ucp3 protein by immunoblotting", "setting": "Ucp3", "value": "largely unaffected"}, {"measurement": "let-7a microRNA expression", "setting": "let-7a microRNA", "value": "no effect"}]}]}
